Laboratory results taken from patent US5144029A, “Derivatives of 1-[3-(4-hydroxyphenyl) 1-hydroxy 1-propyl] benzene substituted in position 2 by an aminoalkyleneoxy chain, the method of preparing same and the application thereof to therapeutics” (Delalande S.A., priority 1988, dated 1992).

tested on: not listed separately; experiment: Acute toxicity (LD50) in mice, method of Litchfield and Wilcoxon; conditions: mouse, in vivo, iv

Point of comparison: `COc1ccc(SC)c(OCCN2CCCCC2)c1C(O)CCc1ccc(O)cc1` (stereo not drawn) [compound 174], LD50 22 mg/kg. Against it:
- CCOc1ccc(OC)c(C(O)CCc2ccc(O)cc2)c1OCCN1CCCCC1 (stereo not drawn) [compound 164] — within 1.5-fold, 17 mg/kg

tested on: basilar artery of a rabbit (contraction induced by KCl); experiment: Contraction of removed rabbit basilar artery in a hyperpotassic medium (calcium antagonistic activity); format: cell-based; conditions: Oryctolagus cuniculus, KCl at 35 mmoles, read-out: IC50 (concentration which reduces by 50% the amplitude of the contraction induced by KCl)
Procedure: The protocol of this test is the following. The rabbit is anaesthetized with pentobarbital at a dose of 30 mg/kg then sacrificed by exsanguination and decapitated at the third cervical vertebra. The basilar artery is removed (1.5 cm) between the vertebral arteries and the Willis's polygon. The basilar artery is then cut in a spiral at an angle of 45°. It is fixed by means of a curved needle between an L shaped glass support and a movement sensor (Grass, type FT03). A mechanical tension of 500 mg is applied to the vessel, before letting it reach its equilibrium condition.
For a period of 1 hour, the vessel is rinsed every 20 minutes, until a stable level is obtained.
The tonic contraction following depolarization caused by KCl is dependent on the calcic movements for it is abolished by the suppression of calcium in the survival medium.
The concentrations (in nM) are measured which reduce by 50% the amplitude of the contraction induced by the KCl at 35 mmoles.

Point of comparison: `C=CCOc1ccc(OC)c(C(O)CCc2ccc(O)cc2)c1OCCN1CCCCC1` (stereo not drawn) [compound 167], IC50 53 nM. Against it:
- COc1ccc(OCC(F)(F)F)c(OCCN2CCCCC2)c1C(O)CCc1ccc(O)cc1 (stereo not drawn) [compound 137] — higher, > 100 nM
- CCSc1ccc(OC)c(C(O)CCc2ccc(O)cc2)c1OCCN1CCCCC1 (stereo not drawn) [compound 175] — 1.7-fold lower, 31 nM
- CCCCCCCCOc1ccc(OC)c(OCCN2CCCCC2)c1C(O)CCc1ccc(O)cc1 (stereo not drawn) [compound 156] — higher, > 100 nM
- CCCCOc1ccc(OC)c(OCCN2CCCCC2)c1C(O)CCc1ccc(O)cc1 (stereo not drawn) [compound 150] — 1.9-fold higher, 100 nM
- COc1ccc(OC(C)C)c(C(O)CCc2ccc(O)cc2)c1OCCN1CCCCC1 (stereo not drawn) [compound 154] — 4.1-fold lower, 13 nM
- COc1ccc(SC)c(OCCN2CCCCC2)c1C(O)CCc1ccc(O)cc1 (stereo not drawn) [compound 174] — 2-fold lower, 27 nM
- COc1ccc(OCc2ccccc2)c(OCCN2CCCCC2)c1C(O)CCc1ccc(O)cc1 (stereo not drawn) [compound 168] — higher, > 100 nM
- COc1ccc(OC2CCCCC2)c(C(O)CCc2ccc(O)cc2)c1OCCN1CCCCC1 (stereo not drawn) [compound 158] — higher, > 100 nM
- COc1ccc(OCc2ccccc2)c(C(O)CCc2ccc(O)cc2)c1OCCN1CCCCC1 (stereo not drawn) [compound 146] — higher, > 100 nM
- COCCOc1ccc(OC)c(C(O)CCc2ccc(O)cc2)c1OCCN1CCCCC1 (stereo not drawn) [compound 171] — higher, > 100 nM
- CCCOc1ccc(OC)c(OCCN2CCCCC2)c1C(O)CCc1ccc(O)cc1 (stereo not drawn) [compound 152] — 5.3-fold lower, 10 nM
- COc1ccc(O)c(OCCN2CCCCC2)c1C(O)CCc1ccc(O)cc1 (stereo not drawn) [compound 169] — higher, > 100 nM
- COc1ccc(OC2CCCCC2)c(OCCN2CCCCC2)c1C(O)CCc1ccc(O)cc1 (stereo not drawn) [compound 173] — higher, > 100 nM
- CCOc1ccc(OC)c(C(O)CCc2ccc(O)cc2)c1OCCN1CCCCC1 (stereo not drawn) [compound 164] — 2.2-fold lower, 24 nM
- COc1ccc(O)c(C(O)CCc2ccc(O)cc2)c1OCCN1CCCCC1 (stereo not drawn) [compound 148] — higher, > 100 nM
- CCOc1ccc(OC)c(OCCN2CCCCC2)c1C(O)CCc1ccc(O)cc1 (stereo not drawn) [compound 160] — 8.8-fold lower, 6 nM
- COc1ccc(C)c(C(O)CCc2ccc(O)cc2)c1OCCN1CCCCC1 (stereo not drawn) [compound 177] — 1.8-fold lower, 30 nM
- CCCOc1ccc(OC)c(C(O)CCc2ccc(O)cc2)c1OCCN1CCCCC1 (stereo not drawn) [compound 166] — 2.3-fold higher, 120 nM
